IC50 data for one compound are collected here from PMC6715294 (Molecular cancer therapeutics, 2018).

One experiment concerns the target AKT2 (Homo sapiens, UniProt P31751). Description: ADP-Glo kinase assay with active AKT2. In kind it is biochemical. Background: ADP-Glo turns the ADP formed in a reaction into a luminescent signal.
The target in the next experiment is AKT1 (Homo sapiens, UniProt P31749). The experiment can be described thus: ADP-Glo kinase assay with active AKT1. In kind it is biochemical.
AKT1, sequence (P31749 whole entry): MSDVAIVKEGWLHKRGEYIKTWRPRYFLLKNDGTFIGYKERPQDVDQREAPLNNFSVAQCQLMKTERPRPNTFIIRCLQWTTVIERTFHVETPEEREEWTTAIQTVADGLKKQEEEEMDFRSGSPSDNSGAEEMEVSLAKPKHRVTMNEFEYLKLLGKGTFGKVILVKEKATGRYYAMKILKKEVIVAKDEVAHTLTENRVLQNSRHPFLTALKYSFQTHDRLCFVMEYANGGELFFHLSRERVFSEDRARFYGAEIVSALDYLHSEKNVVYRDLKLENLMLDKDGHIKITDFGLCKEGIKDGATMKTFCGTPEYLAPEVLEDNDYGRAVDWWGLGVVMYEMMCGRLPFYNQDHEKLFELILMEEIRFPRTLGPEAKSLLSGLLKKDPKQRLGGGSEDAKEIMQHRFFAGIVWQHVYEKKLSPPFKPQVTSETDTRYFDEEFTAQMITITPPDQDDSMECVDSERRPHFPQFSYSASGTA

Molecules are shown by their SMILES.

AKT2, sequence (P31751 whole entry): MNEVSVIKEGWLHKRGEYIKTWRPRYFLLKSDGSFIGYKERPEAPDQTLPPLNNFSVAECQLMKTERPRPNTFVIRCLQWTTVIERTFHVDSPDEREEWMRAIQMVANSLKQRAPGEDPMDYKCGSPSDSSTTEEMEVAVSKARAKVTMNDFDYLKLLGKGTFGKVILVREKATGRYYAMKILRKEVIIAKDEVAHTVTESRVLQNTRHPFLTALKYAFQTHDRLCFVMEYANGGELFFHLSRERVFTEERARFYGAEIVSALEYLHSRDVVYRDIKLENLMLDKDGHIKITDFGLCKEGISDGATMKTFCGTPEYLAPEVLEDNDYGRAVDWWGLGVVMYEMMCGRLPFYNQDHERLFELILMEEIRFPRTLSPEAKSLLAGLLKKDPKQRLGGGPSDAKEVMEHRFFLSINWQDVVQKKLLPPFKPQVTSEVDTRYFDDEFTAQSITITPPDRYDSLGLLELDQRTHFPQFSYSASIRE

As a reminder, the IC50 is the point on the concentration scale where inhibition reaches its midpoint. For the compound `C=C1C(=O)[C@]23[C@H](O)[C@H]1CC[C@H]2[C@@]12CO[C@]3(O)[C@@H](O)[C@@H]1C(C)(C)CC[C@@H]2O` [oridonin], the half-maximal inhibitory concentration (IC50) against AKT2 stood at 8.9 ± 0.92 µM; on AKT1, 8.4 ± 1.34 µM.
